Experimental data: ChEMBL document CHEMBL2157998, “Synthesis and biological evaluation of new phenothiazine derivatives bearing a pyrazole unit as protein farnesyltransferase inhibitors” (Bioorg Med Chem Lett, 2012)

What follows are compounds tested against Protein farnesyltransferase (Homo sapiens, UniProt P49354+P49356) (assay: Inhibition of recombinant human FTase using dansyl-GCVLS as substrate at 100 uM after 15 mins by fluorimetric analysis).
Assay type: protein-complex assay

Row | Compound | inhibition [%]
1 | Cc1cc(C)n(CC(=O)N2c3ccccc3Sc3ccccc32)n1 | 22.4
2 | CCOC(=O)c1cc(-c2ccccc2)n(CC(=O)N2c3ccccc3Sc3ccccc32)n1 | 0
3 | CCOC(=O)C1=NN(C(=O)CN2c3ccccc3Sc3ccccc32)C(O)(c2ccccc2)C1 (stereo unspecified) | 30.7
4 | CCOC(=O)C1=NN(C(=O)CCN2c3ccccc3Sc3ccccc32)C(O)(c2ccccc2)C1 (stereo unspecified) | 22.8
5 | Cc1c2c(nn1C(=O)CN1c3ccccc3Sc3ccccc31)CCCC2 | 0
6 | N#Cc1cnn(C(=O)CCN2c3ccccc3Sc3ccccc32)c1N | 4.7
7 | Cc1c2c(nn1C(=O)CCN1c3ccccc3Sc3ccccc31)CCCC2=O | 19.5
8 | Cc1c2c(nn1CC(=O)N1c3ccccc3Sc3ccccc31)CCCC2=O | 46.6
9 | CCOC(=O)c1cc(-c2ccccc2)nn1CC(=O)N1c2ccccc2Sc2ccccc21 | 0
10 | Cc1c2c(nn1C(=O)CN1c3ccccc3Sc3ccccc31)CCCC2=O | 0
11 | Cc1cc(-c2ccccc2)n(CC(=O)N2c3ccccc3Sc3ccccc32)n1 | 0
